Patent US7259004B1, “Endophytic streptomycetes from higher plants with biological activity” (Montana State University, priority 2002, dated 2007)

Assays:
[1] = tested on: RNA synthesis in Bacillus subtilis; assay: macromolecular synthesis whole cell assay, [3H]uridine incorporation; type: cell-based; settings: for % [3H]uridine (RNA synthesis) incorporation of that of the untreated culture: 1×MIC
[2] = tested on: Pseudomonas aeruginosa ATCC 27853; assay: disk diffusion assay; type: cell-based; settings: 10 micrograms per disk; ciprofloxacin 5, vancomycin 30 micrograms per disk; 35° C. Also: key: R = resistant.
S. aureus ATCC 6583P = assay: MIC with and without double stranded DNA; type: cell-based, Staphylococcus aureus
[3] = tested on: Human Breast Cancer Epithelial BT-20; assay: CellTiter 96 Aqueous Non-Radioactive Cell Proliferation Assay; type: cell-based; settings: 96-144 hours; Table 7
[4] = tested on: Human Primary Mammary Epithelial HMEC; assay: as above; type: cell-based; settings: 48 hours; Table 7
[5] = tested on: Human Lung Cancer Epithelial A549; assay: as above; type: cell-based; settings: 48 hours; Table 7
Procedure, shortened: (§1)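 Cells rested 5 h at 37° C after seeding, then treated in triplicate with two-fold serial dilutions of compound. A-549 and ME-180 were exposed for 48 h. After 1–4 h MTS reagent at 37° C, OD490 was read and corrected by subtracting medium-only blanks.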

[6] = tested on: Human Cervical Cancer Epithelial ME180; assay: as above; type: cell-based; settings: 48 hours; Table 7
Procedure, shortened: as §1

[7] = tested on: Protein synthesis in Bacillus subtilis; assay: macromolecular synthesis whole cell assay, [3H]amino acid mixture incorporation; type: cell-based; settings: for % [3H]amino acid mixture (Protein synthesis) incorporation of that of the untreated culture: 1×MIC
[8] = tested on: Enterococcus faecium ATCC 51559; assay: disk diffusion assay; type: cell-based; settings: 10 micrograms per disk; ciprofloxacin 5, vancomycin 30 micrograms per disk; 35° C.
[9] = tested on: Plasmodium falciparum strain CSC-1 (Honduras); assay: antimalarial assay, 3H-phenylalanine radiobioassay in human red blood cells; settings: human red blood cells, 3H-phenylalanine; standard deviation of the mean, three experiments
brine shrimp = brine shrimp assays; settings: preliminary assays
[10] = tested on: DNA synthesis in Bacillus subtilis; assay: macromolecular synthesis whole cell assay, [3H]thymidine incorporation; type: cell-based; settings: for % [3H]thymidine (DNA synthesis) incorporation of that of the untreated culture: 1×MIC
Aspergillus fumigatus = assay: microbroth dilution MIC
Pseudomonas syringae = assay: microbroth dilution MIC, plant associated microorganisms; type: cell-based; settings: PD broth
Procedure: (§2) Incubation was for 48 hours at 23° C. A plant pathogenic strain of Pseudomonas syringae was also tested using the same PD broth medium and with concentrations of colony forming units as given above. The organisms were obtained from the Montana State University plant pathogen culture collection administered by Dr. […] The relative activities against plant pathogenic fungi ranged from a few tenths of a microgram up to thirty micrograms. Table 2 provides the results of tests of inhibitory activity of the munumbicins against various plant-pathogenic fungi and one pathogenic bacterium. The data are reported as MIC values in micrograms/ml.

Sclerotinia sclerotiorum = assay: as above; type: cell-based; settings: PD broth, 48 hours at 23° C.
Procedure: as §2

Rhizoctonia solani = assay: as above; type: cell-based; settings: PD broth, 48 hours at 23° C.
Procedure: as §2

Geotrichum candidum = assay: as above; type: cell-based; settings: PD broth, 48 hours at 23° C.
Procedure: as §2

Pythium ultimum = assay: as above; type: cell-based; settings: PD broth, 48 hours at 23° C.
Procedure: as §2

Phytophthora cinnamomi = assay: as above; type: cell-based; settings: PD broth, 48 hours at 23° C.
Procedure: as §2

[11] = tested on: Staphylococcus aureus ATCC 29213; assay: disk diffusion assay; type: cell-based; settings: 10 micrograms per disk; ciprofloxacin 5, vancomycin 30 micrograms per disk; 35° C.
[12] = tested on: Cell wall synthesis in Bacillus subtilis; assay: macromolecular synthesis whole cell assay, [3H]N-acetyl glucosamine incorporation; type: cell-based; settings: for % [3H]N-acetyl glucosamine (Cell wall synthesis) incorporation of that of the untreated culture: 1×MIC
Cryptococcus neoformans = assay: microbroth dilution MIC
[13] = tested on: S. maltophilia ATCC 13637; assay: disk diffusion assay; type: cell-based, Stenotrophomas maltophilia; settings: 10 micrograms per disk; 35° C.
Candida albicans = assay: microbroth dilution MIC
[14] = tested on: Staphyloccus aureus MH II Eli Lilly Co.; assay: microbroth dilution MIC; settings: drug sensitive strain
[15] = DNA +, 20 micrograms per well of sheared salmon sperm DNA

| Substance | diameter of the zone of inhibition, Pseudomonas aeruginosa ATCC 27853 [2] | MIC S. aureus ATCC 6583P (S. aureus ATCC 6583P; [15]) | MIC S. aureus ATCC 6583P (S. aureus ATCC 6583P; DNA −) | IC50 Human Breast Cancer Epithelial BT-20 [3] | IC50 Human Primary Mammary Epithelial HMEC [4] | IC50 Human Lung Cancer Epithelial A549 [5] | IC50 Human Cervical Cancer Epithelial ME180 [6] | diameter of the zone of inhibition, Enterococcus faecium ATCC 51559 [8] | IC50 Plasmodium falciparum [9] | LC50 brine shrimp (brine shrimp) | MIC Aspergillus fumigatus (Aspergillus fumigatus) | MIC Pseudomonas syringae (Pseudomonas syringae) | MIC Sclerotinia sclerotiorum (Sclerotinia sclerotiorum) | MIC Rhizoctonia solani (Rhizoctonia solani) | MIC Geotrichum candidum (Geotrichum candidum) | MIC Pythium ultimum (Pythium ultimum) | MIC Phytophthora cinnamomi (Phytophthora cinnamomi) | diameter of the zone of inhibition, Staphylococcus aureus ATCC 29213 [11] | MIC Cryptococcus neoformans (Cryptococcus neoformans) | diameter of the zone of inhibition, S. maltophilia ATCC 13637 [13] | also measured |
| --- | --- | --- | --- | --- | --- | --- | --- | --- | --- | --- | --- | --- | --- | --- | --- | --- | --- | --- | --- | --- | --- |
| munumbicin B | R | >32 micrograms/ml | 2 micrograms/ml | 0.019 micrograms/ml | 0.011 micrograms/ml | 0.019 micrograms/ml | 0.140 micrograms/ml | 26 mm | 0.13 ± 0.07 µg/mL | 8.2 micrograms/ml | 20 micrograms/ml | 2.0 micrograms/ml | 0.20 micrograms/ml | 8.0 micrograms/ml | 31.2 micrograms/ml | 0.2 micrograms/ml | 6.2 micrograms/ml | 15 mm | 10 micrograms/ml | 9 mm | effect on RNA synthesis (in words) [1]: some inhibitory effect; % [3H]uridine (RNA synthesis) incorporation of that of the untreated culture ([1]; 5 min): 64%; % [3H]uridine (RNA synthesis) incorporation of that of the untreated culture ([1]; 10 min): 59%; effect on protein synthesis (in words) [7]: milder inhibitory effect; % [3H]amino acid mixture (Protein synthesis) incorporation of that of the untreated culture ([7]; 5 min): 85%; % [3H]amino acid mixture (Protein synthesis) incorporation of that of the untreated culture ([7]; 10 min): 74%; effect on DNA synthesis (in words) [10]: no effect; % [3H]thymidine (DNA synthesis) incorporation of that of the untreated culture ([10]; 5 min): 93%; % [3H]thymidine (DNA synthesis) incorporation of that of the untreated culture ([10]; 10 min): 102%; effect on cell wall synthesis (in words) [12]: some inhibitory effect; % [3H]N-acetyl glucosamine (Cell wall synthesis) incorporation of that of the untreated culture ([12]; 5 min): 81%; % [3H]N-acetyl glucosamine (Cell wall synthesis) incorporation of that of the untreated culture ([12]; 10 min): 59% |
| munumbicin C | R | >32 micrograms/ml | 0.5 micrograms/ml | 0.013 micrograms/ml | 0.0023 micrograms/ml | 0.3 micrograms/ml | 0.1 micrograms/ml | 28 mm | 0.0065 µg/mL | 2.0 micrograms/ml | 20 micrograms/ml | 15.6 micrograms/ml | 8.0 micrograms/ml | 1.5 micrograms/ml | 15.6 micrograms/ml | 4.0 micrograms/ml | 1.5 micrograms/ml | R | 10 micrograms/ml | R | MIC Candida albicans (Candida albicans): >10 micrograms/ml; MIC Staphyloccus aureus MH II Eli Lilly Co. [14]: 0.4 micrograms/ml; concentration causing detectable lysis of human red blood cells (human red blood cells): > 80 micrograms/ml |
